Measurements reported in ChEMBL document CHEMBL1201862, “PubChem BioAssay data set” (2004).
Activity calls are given as the source filed them.

What was measured:
[1] = target: T1, Dual specificity protein phosphatase 3 (Homo sapiens, UniProt P51452); experiment: SAR VHR1 Fluorescent Assay for In Vitro dose response studies. [Related pubchem assays (depositor defined):AID1654, AID1661, AID1878, AID1992, AID2004, AID2070, AID2085]; type: functional
[2] = target: DNA (cytosine-5)-methyltransferase 1 (Homo sapiens, UniProt P26358); experiment: inhibition of DNA methylation by DNMT1 – biochemical, fluorescent molecular beacon, confirmation (AID 602386); type: functional
Sequence of DNA (cytosine-5)-methyltransferase 1 (P26358 whole entry): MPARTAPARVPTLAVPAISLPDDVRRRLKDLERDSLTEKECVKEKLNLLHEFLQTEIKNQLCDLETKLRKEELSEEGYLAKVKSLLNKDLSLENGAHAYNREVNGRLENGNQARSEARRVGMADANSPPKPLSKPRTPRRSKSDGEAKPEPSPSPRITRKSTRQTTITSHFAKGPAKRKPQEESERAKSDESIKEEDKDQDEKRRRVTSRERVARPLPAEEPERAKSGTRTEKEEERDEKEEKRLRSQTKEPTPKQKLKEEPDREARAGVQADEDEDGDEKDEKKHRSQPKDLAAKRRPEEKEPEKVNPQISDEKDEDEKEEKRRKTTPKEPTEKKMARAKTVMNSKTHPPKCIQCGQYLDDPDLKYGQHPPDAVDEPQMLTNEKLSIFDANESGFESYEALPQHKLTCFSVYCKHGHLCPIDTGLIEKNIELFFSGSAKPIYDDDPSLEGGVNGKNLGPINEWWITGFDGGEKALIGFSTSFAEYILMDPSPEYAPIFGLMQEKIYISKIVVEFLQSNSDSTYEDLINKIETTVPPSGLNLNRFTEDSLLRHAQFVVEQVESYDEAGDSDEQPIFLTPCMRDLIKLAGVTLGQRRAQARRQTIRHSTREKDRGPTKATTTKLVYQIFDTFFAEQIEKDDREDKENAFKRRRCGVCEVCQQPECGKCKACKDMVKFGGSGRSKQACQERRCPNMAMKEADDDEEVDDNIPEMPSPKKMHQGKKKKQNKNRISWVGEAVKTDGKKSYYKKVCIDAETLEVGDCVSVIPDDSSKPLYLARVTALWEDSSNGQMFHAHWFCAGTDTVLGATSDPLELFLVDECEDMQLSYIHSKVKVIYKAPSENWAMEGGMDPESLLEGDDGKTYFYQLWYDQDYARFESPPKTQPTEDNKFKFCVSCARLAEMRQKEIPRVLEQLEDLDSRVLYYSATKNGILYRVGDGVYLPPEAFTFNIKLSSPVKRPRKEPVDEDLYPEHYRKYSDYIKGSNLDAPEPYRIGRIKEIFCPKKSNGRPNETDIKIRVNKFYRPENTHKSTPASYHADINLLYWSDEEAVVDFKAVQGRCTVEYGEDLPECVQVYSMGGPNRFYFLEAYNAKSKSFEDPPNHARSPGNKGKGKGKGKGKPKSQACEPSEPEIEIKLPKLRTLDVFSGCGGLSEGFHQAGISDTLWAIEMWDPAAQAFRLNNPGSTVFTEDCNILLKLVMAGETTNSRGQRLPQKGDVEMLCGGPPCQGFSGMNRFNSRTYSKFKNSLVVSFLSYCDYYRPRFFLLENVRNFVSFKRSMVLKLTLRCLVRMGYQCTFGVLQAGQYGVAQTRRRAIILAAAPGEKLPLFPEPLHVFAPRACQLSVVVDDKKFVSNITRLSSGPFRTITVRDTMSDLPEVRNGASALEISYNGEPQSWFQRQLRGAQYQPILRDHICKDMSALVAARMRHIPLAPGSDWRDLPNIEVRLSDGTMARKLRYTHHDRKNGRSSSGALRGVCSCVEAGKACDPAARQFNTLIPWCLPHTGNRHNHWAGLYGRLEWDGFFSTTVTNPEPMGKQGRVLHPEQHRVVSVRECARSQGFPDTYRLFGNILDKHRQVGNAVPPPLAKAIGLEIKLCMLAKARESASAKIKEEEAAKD

[3] = target: T2, Tyrosine-protein phosphatase non-receptor type 7 (Homo sapiens, UniProt P35236); experiment: redox-active compounds inhibiting HePTP phosphatase – biochemical, fluorescence, mechanism study (AID 2068); type: functional
T2 sequence (P35236 whole entry): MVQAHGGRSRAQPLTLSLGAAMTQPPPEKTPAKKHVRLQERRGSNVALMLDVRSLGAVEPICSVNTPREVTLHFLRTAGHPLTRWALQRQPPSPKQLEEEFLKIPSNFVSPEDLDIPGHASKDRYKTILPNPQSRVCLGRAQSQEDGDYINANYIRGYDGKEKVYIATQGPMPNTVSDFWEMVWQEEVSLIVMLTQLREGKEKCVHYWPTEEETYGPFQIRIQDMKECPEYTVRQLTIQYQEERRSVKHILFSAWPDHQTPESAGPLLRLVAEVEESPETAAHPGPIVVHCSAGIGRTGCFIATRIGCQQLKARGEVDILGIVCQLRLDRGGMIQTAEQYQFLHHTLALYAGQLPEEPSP

[4] = target: Genome polyprotein (dengue virus type 2, UniProt P29990); experiment: flavivirus cap methylation enzyme inhibition – biochemical, confirmation dose response, primary screen (AID 588689); type: functional
Sequence of Genome polyprotein (P29990 2492-3391 limits assumed): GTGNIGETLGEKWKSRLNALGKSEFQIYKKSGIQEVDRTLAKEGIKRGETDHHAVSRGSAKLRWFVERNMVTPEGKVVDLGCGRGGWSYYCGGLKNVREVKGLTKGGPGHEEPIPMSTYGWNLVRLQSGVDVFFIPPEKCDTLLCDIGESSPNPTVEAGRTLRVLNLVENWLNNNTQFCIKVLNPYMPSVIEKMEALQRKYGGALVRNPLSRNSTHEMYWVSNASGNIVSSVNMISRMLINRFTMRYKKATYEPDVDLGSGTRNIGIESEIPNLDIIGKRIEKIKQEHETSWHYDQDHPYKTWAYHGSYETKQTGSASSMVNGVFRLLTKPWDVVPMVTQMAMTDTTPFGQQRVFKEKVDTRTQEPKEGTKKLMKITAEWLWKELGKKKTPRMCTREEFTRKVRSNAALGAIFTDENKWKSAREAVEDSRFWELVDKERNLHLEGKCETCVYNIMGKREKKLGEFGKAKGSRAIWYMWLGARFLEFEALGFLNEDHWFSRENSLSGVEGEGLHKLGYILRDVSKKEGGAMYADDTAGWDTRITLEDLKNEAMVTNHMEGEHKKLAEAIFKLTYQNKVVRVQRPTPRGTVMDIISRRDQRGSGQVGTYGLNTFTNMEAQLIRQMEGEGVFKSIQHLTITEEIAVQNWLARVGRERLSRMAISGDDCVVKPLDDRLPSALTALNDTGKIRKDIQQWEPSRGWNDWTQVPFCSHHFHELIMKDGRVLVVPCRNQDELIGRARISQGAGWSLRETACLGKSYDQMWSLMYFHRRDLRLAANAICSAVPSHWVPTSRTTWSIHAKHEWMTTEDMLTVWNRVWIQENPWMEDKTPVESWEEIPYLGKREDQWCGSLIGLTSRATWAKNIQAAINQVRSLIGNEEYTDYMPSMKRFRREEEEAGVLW

[5] = target: NAD-dependent protein deacylase sirtuin-5, mitochondrial (Homo sapiens, UniProt Q9NXA8); experiment: sirtuin-5 deacylation blockers, concentration series – biochemical, fluorescence imaging, cherry-pick, set 5, dose response (AID 720591);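 note: desuccinylation of succinyl peptide AMC substrate read as fluorescence after trypsin release; potency of inhibitors that lower fluorescence and may act on trypsin instead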
Sequence of NAD-dependent protein deacylase sirtuin-5, mitochondrial (Q9NXA8 whole entry): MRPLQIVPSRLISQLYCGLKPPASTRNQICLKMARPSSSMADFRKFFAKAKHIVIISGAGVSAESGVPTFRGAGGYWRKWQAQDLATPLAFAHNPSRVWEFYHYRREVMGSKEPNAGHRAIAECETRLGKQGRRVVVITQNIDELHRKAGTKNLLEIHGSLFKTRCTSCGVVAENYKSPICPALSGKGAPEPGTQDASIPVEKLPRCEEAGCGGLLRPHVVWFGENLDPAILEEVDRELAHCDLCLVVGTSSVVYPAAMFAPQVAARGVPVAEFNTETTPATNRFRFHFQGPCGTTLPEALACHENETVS

[6] = target: T3, Aminopeptidase N (Plasmodium falciparum FcB1/Columbia, UniProt O96935); experiment: malaria alanyl aminopeptidase activity blockers – biochemical, fluorogenic H-Leu-NHMec substrate, 1536-well (AID 1445); set-up: species or system Plasmodium falciparum 3D7, 3D7
T3 sequence (O96935 whole entry): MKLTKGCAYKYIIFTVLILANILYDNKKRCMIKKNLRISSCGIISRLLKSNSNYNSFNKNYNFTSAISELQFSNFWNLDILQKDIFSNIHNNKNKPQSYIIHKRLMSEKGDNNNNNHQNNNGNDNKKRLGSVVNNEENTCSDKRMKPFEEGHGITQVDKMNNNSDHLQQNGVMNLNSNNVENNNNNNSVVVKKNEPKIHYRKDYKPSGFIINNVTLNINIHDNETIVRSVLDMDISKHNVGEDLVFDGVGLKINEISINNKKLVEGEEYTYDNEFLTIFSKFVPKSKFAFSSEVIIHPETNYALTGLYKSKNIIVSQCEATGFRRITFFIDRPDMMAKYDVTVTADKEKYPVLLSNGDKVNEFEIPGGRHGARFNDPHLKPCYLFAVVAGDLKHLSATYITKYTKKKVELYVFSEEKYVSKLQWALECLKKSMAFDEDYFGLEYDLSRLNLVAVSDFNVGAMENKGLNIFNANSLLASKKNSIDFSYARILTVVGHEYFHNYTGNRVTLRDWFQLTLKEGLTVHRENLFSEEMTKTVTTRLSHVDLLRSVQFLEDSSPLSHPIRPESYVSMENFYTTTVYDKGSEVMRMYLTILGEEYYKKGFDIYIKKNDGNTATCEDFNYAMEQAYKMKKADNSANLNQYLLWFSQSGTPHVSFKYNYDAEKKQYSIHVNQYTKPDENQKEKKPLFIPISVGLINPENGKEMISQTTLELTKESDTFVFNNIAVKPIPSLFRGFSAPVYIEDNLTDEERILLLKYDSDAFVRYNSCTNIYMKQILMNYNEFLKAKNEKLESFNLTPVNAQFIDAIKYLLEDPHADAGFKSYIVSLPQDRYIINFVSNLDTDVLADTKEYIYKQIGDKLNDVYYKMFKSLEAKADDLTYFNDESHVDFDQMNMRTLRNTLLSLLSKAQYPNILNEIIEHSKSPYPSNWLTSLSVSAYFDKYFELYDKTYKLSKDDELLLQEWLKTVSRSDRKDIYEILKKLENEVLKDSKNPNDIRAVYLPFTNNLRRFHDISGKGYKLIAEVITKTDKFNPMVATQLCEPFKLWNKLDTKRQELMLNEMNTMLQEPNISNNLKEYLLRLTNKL

[7] = target: T4, Dual specificity protein phosphatase 6 (Rattus norvegicus, UniProt Q64346); experiment: inhibition of rat DUSP6 enzyme activity – biochemical, in vitro, primary screen (AID 425)
T4 sequence (Q64346 whole entry): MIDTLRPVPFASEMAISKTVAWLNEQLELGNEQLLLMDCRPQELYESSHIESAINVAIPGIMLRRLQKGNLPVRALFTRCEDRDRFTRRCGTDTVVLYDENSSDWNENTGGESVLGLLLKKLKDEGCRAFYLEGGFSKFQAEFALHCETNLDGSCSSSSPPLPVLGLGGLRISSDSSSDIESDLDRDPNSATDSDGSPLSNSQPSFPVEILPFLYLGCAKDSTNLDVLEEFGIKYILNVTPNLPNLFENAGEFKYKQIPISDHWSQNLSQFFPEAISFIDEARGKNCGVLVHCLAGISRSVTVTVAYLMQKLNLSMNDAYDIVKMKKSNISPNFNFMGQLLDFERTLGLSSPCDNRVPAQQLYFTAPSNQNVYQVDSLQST

[8] = target: T1, Dual specificity protein phosphatase 3; experiment: VHR1 phosphatase inhibitors, primary screen, biochemical, absorbance, uHTS (AID 1654)
[9] = target: T4, Dual specificity protein phosphatase 6; type: functional
[10] = target: T1, Dual specificity protein phosphatase 3; experiment: SAR VHR1 absorbance Assay for In Vitro dose response studies. [Related pubchem assays (depositor defined):AID1654, AID1661, AID1878, AID1992, AID2004]
[11] = target: T1, Dual specificity protein phosphatase 3; experiment: VHR1 phosphatase inhibitors, biochemical (AID 1878)
[12] = tested on: A-375; experiment: proliferation inhibition in MITF-low A375 cells – cell-based, cherry-pick samples, set 2, counter-screen for MITF modulator project, dose response (AID 540335); type: functional; details: Homo sapiens
[13] = HEK-293T viability loss, compound-treated – cell-based, uHTS hits, cytotoxicity control for B/T-cell NF-kB inhibitor project, dose response (AID 489019); type: functional;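 note: IC50 reflects cytotoxicity as loss of cell viability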
[14] = tested on: Jurkat; experiment: blockers of NF-kB activation in T cells – Jurkat, luciferase reporter, luminescence, B- and T-cell, dose response (AID 489004); type: functional, cell-based; details: Homo sapiens;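 note: NF-kB luciferase reporter Jurkat cells stimulated with PMA plus ionomycin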
[15] = target: T5, Microphthalmia-associated transcription factor (Homo sapiens, UniProt O75030); experiment: reducers of TRPM1 reporter luminescence, concentration series – cell-based, SK-MEL-5, cherry-picked, set 3, MITF inhibitor project, dose response (AID 493073); type: functional;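 note: SK-MEL-5 melanoma cells with luciferase driven by the MITF target TRPM1 promoter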
T5 sequence (O75030 whole entry): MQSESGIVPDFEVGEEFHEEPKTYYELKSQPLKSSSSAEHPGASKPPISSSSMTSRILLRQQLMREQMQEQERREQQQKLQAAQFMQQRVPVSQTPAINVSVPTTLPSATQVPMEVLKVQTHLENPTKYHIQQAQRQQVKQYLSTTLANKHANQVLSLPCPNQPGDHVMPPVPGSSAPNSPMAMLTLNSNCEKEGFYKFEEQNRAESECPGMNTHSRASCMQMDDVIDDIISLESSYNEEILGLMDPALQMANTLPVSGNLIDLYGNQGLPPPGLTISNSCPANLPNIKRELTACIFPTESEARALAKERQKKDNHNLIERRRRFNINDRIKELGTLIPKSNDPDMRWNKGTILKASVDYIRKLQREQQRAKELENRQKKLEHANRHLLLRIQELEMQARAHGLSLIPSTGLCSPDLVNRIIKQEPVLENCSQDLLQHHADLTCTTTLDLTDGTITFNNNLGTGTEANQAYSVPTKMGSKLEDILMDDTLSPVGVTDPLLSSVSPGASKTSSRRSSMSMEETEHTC

[16] = tested on: A-375; experiment: MITF: Counter assay: A375 proliferation Measured in Cell-Based System Using Plate Reader - 2084-03_Inhibitor_Dose_DryPowder_Activity. [Related pubchem assays (depositor defined):AID488944]; type: functional; details: Homo sapiens
[17] = tested on: HEK293; experiment: EBV LMP1 TES2 canonical NF-kB signalling blockers – cell-based, HEK293, luciferase, cherry-pick, dose response (AID 588343); type: functional; details: Homo sapiens
[18] = target: Delta-type opioid receptor (Homo sapiens, UniProt P41143); experiment: Counterscreen for agonists of heterodimerization of the mu 1 (OPRM1) and delta 1 (OPRD1) opioid receptors: Luminescence-based cell-based high throughput dose response assay to identify agonists of OPRD1 homodimerization. [Related pubchem assays (depositor defined):AID504326, AID504355, AID504692, AID504904, AID504905]; type: functional
Sequence of Delta-type opioid receptor (P41143 whole entry): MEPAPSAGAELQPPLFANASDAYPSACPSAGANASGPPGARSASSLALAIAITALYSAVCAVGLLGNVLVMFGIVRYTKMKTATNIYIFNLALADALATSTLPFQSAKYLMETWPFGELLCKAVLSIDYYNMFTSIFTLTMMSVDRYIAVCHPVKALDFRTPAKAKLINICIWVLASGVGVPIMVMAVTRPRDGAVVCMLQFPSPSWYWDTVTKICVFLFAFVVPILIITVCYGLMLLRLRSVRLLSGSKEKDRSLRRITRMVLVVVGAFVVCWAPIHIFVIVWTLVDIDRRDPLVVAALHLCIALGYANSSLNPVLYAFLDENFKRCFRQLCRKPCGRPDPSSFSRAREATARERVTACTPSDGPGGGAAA

[19] = target: Mu-type opioid receptor (Homo sapiens, UniProt P35372); experiment: Counterscreen for agonists of heterodimerization of the mu 1 (OPRM1) and delta 1 (OPRD1) opioid receptors: Luminescence-based cell-based high throughput dose response assay to identify agonists of OPRM1 homodimerization.; type: functional;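 note: U2OS cells expressing OPRM1 and beta-arrestin as split beta-galactosidase partners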
Sequence of Mu-type opioid receptor (P35372 whole entry): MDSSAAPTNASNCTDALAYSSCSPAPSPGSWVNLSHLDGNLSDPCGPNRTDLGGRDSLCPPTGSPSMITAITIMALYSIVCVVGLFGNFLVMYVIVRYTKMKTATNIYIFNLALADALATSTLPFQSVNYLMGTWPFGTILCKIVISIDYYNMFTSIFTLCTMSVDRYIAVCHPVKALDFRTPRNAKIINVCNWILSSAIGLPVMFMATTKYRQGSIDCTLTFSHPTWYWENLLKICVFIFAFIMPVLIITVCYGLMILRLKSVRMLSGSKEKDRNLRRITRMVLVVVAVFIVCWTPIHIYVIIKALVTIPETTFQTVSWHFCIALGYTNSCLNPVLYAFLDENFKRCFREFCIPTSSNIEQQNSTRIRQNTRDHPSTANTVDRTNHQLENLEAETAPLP

[20] = target: Voltage-gated inwardly rectifying potassium channel KCNH2 (Homo sapiens, UniProt Q12809); experiment: concentration-dependent hERG rescue from blockers – cell-based, thallium flux, dose response (AID 2121); type: ADME
[21] = target: 5-hydroxytryptamine receptor 5A (Homo sapiens, UniProt P47898); experiment: Counterscreen for agonists of OPRM1-OPRD1 heterodimerization: luminescence-based cell-based high throughput dose response assay to identify agonists of 5-hydroxytryptamine (serotonin) 5A receptor (HTR5A). [Related pubchem assays (depositor defined):AID504326, AID504355, AID504692, AID504904, AID504905]; type: functional
Sequence of 5-hydroxytryptamine receptor 5A (P47898 whole entry): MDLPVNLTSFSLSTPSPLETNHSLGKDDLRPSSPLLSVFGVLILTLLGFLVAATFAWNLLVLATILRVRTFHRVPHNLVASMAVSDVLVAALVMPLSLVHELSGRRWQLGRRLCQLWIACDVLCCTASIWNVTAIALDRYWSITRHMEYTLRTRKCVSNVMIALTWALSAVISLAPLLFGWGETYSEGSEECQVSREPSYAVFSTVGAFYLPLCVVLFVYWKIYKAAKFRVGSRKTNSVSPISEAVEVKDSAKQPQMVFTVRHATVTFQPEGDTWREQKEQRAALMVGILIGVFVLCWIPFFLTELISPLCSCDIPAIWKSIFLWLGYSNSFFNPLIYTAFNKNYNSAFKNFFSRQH

T1 sequence (P51452 whole entry): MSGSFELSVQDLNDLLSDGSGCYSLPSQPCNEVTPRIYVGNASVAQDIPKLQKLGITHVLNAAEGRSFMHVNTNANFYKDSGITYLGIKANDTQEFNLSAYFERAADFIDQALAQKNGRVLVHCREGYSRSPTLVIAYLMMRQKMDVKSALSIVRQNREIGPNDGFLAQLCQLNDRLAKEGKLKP

O=C(O)CSc1cc(C(=O)c2ccccc2O)cn2c(=O)c3c4c(sc3nc12)CCCC4
IC50 [1]: 13.5 µM (active) | IC50 [2]: 14.1 µM (active) | IC50 [3]: 0.576 µM (active) | IC50 [4]: 94.1 µM (active) | AC50 [5]: 5.07 µM (active) | IC50 [6]: 19.5 µM (active) | IC50 [7]: > 158 µM (not active) | IC50 [8]: 19 µM (active) | IC50 [9]: > 99 µM (inactive) | IC50 [10]: 2.62 µM (active) | IC50 [11]: 7.42 µM (active)

CCOc1ccc(/C=C2\SC(=S)N(CCC(=O)O)C2=O)cc1
AC50 [12]: > 35 µM (active) | IC50 [13]: > 80 µM (inactive) | IC50 [14]: < 0.16 µM (active) | AC50 [15]: 0.577 µM (active) | AC50 [16]: > 35 µM (active)

Cc1ccccc1Cn1c(O)c(N=NC(S)=Nc2ccccc2F)c2ccccc21
AC50 [17]: 3.18 µM (active) | EC50 [18]: > 92.5 µM (inactive) | EC50 [19]: > 92.5 µM (inactive) | EC50 [20]: 0.87 µM (active) | EC50 [21]: > 92.5 µM (inactive)
